Results taken from PubChem BioAssay (NCI).
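Briefly, cells in 96-well plates were exposed to five compound concentrations for 48 h, and endpoints were estimated by linear interpolation. GI50 is the concentration that inhibits growth by half. The concentration for full growth arrest is given as TGI.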

Key:
Experiment in all cases: NCI tumour cell line growth inhibition, 48 h
U251 CNS = system: U251 CNS
MDA-MB-435 = system: MDA-MB-435
K-562 leukemia = system: K-562 leukemia
PC-3 prostate = system: PC-3 prostate
UACC-62 melanoma = system: UACC-62 melanoma
HCC-2998 colon = system: HCC-2998 colon
BT-549 breast = system: BT-549 breast
KM12 colon = system: KM12 colon
TK-10 renal = system: TK-10 renal
IGROV1 ovarian = system: IGROV1 ovarian
SW-620 colon = system: SW-620 colon
SF-295 CNS = system: SF-295 CNS
SF-539 CNS = system: SF-539 CNS
NCI-H23 lung = system: NCI-H23 lung
ACHN renal = system: ACHN renal
HOP-92 NSCLC = system: HOP-92 NSCLC
OVCAR-5 ovarian = system: OVCAR-5 ovarian
SK-MEL-5 melanoma = system: SK-MEL-5 melanoma
OVCAR-4 ovarian = system: OVCAR-4 ovarian
OVCAR-3 ovarian = system: OVCAR-3 ovarian
SN12C renal = system: SN12C renal
HL-60(TB) leukemia = system: HL-60(TB) leukemia
MDA-MB-231 breast = system: MDA-MB-231 breast
786-0 renal = system: 786-0 renal
CAKI-1 renal = system: CAKI-1 renal
HCT-116 colon = system: HCT-116 colon
M14 melanoma = system: M14 melanoma
LOX IMVI melanoma = system: LOX IMVI melanoma
NCI-H226 lung = system: NCI-H226 lung
EKVX NSCLC = system: EKVX NSCLC
UO-31 renal = system: UO-31 renal
A498 renal = system: A498 renal
RXF 393 renal = system: RXF 393 renal
OVCAR-8 ovarian = system: OVCAR-8 ovarian
SK-MEL-2 melanoma = system: SK-MEL-2 melanoma
DU-145 prostate = system: DU-145 prostate
NCI/ADR-RES ovarian = system: NCI/ADR-RES ovarian
SF-268 CNS = system: SF-268 CNS
NCI-H460 lung = system: NCI-H460 lung
RPMI-8226 leukemia = system: RPMI-8226 leukemia
MCF7 breast = system: MCF7 breast
HOP-62 NSCLC = system: HOP-62 NSCLC
HS 578T breast = system: HS 578T breast
NCI-H522 lung = system: NCI-H522 lung
UACC-257 melanoma = system: UACC-257 melanoma
HCT-15 colon = system: HCT-15 colon
A549 NSCLC = system: A549 NSCLC
MOLT-4 leukemia = system: MOLT-4 leukemia
SNB-19 CNS = system: SNB-19 CNS
CCRF-CEM leukemia = system: CCRF-CEM leukemia
T-47D breast = system: T-47D breast
SNB-75 CNS = system: SNB-75 CNS

**Q.** Which results are given for COc1ccc(-c2cncn2-c2ccc(OC)cc2)cc1?
**A.** GI50 (U251 CNS): 25.3 µM; TGI (U251 CNS): > 100 µM; GI50 (MDA-MB-435): 3.62 µM; TGI (MDA-MB-435): 14.1 µM; GI50 (K-562 leukemia): 10.8 µM; TGI (K-562 leukemia): 36.9 µM; GI50 (PC-3 prostate): 30 µM; TGI (PC-3 prostate): > 100 µM; GI50 (UACC-62 melanoma): 15.7 µM; TGI (UACC-62 melanoma): 53.1 µM; GI50 (HCC-2998 colon): 16.7 µM; TGI (HCC-2998 colon): 32.2 µM; GI50 (BT-549 breast): 12.3 µM; TGI (BT-549 breast): 32.5 µM; GI50 (KM12 colon): 10.2 µM; TGI (KM12 colon): 29 µM; GI50 (TK-10 renal): 17.4 µM; TGI (TK-10 renal): 41.9 µM; GI50 (IGROV1 ovarian): 18.7 µM; TGI (IGROV1 ovarian): 62.5 µM; GI50 (SW-620 colon): 26.1 µM; TGI (SW-620 colon): > 100 µM; GI50 (SF-295 CNS): 12.7 µM; TGI (SF-295 CNS): 47 µM; GI50 (SF-539 CNS): 11.2 µM; TGI (SF-539 CNS): 29.2 µM; GI50 (NCI-H23 lung): 19.1 µM; TGI (NCI-H23 lung): 48.3 µM; GI50 (ACHN renal): 21.3 µM; TGI (ACHN renal): 60.4 µM; GI50 (HOP-92 NSCLC): 23 µM; TGI (HOP-92 NSCLC): 84.8 µM; GI50 (OVCAR-5 ovarian): 25.2 µM; TGI (OVCAR-5 ovarian): 82.7 µM; GI50 (SK-MEL-5 melanoma): 17.9 µM; TGI (SK-MEL-5 melanoma): 33.8 µM; GI50 (OVCAR-4 ovarian): 28.9 µM; TGI (OVCAR-4 ovarian): > 100 µM; GI50 (OVCAR-3 ovarian): 20 µM; TGI (OVCAR-3 ovarian): 45.5 µM; GI50 (SN12C renal): 18.1 µM; TGI (SN12C renal): 48.3 µM; GI50 (HL-60(TB) leukemia): 9.06 µM; TGI (HL-60(TB) leukemia): 26.2 µM; GI50 (MDA-MB-231 breast): 21.3 µM; TGI (MDA-MB-231 breast): 71 µM; GI50 (786-0 renal): 21.9 µM; TGI (786-0 renal): 49.1 µM; GI50 (CAKI-1 renal): 20.6 µM; TGI (CAKI-1 renal): 44 µM; GI50 (HCT-116 colon): 20.5 µM; TGI (HCT-116 colon): 44 µM; GI50 (M14 melanoma): 20.8 µM; TGI (M14 melanoma): 46.9 µM; GI50 (LOX IMVI melanoma): 29.6 µM; TGI (LOX IMVI melanoma): > 100 µM; GI50 (NCI-H226 lung): 22.5 µM; TGI (NCI-H226 lung): 98.3 µM; GI50 (EKVX NSCLC): 4.08 µM; TGI (EKVX NSCLC): 27.1 µM; GI50 (UO-31 renal): 17.2 µM; TGI (UO-31 renal): 53.6 µM; GI50 (A498 renal): 16.3 µM; TGI (A498 renal): 34.3 µM; GI50 (RXF 393 renal): 0.376 µM; TGI (RXF 393 renal): 9.46 µM; GI50 (OVCAR-8 ovarian): 21.1 µM; TGI (OVCAR-8 ovarian): 52.8 µM; GI50 (SK-MEL-2 melanoma): 17.9 µM; TGI (SK-MEL-2 melanoma): 42.9 µM; GI50 (DU-145 prostate): 14.9 µM; TGI (DU-145 prostate): 32.5 µM; GI50 (NCI/ADR-RES ovarian): 19.3 µM; TGI (NCI/ADR-RES ovarian): 42.9 µM; GI50 (SF-268 CNS): 21.7 µM; TGI (SF-268 CNS): 66.2 µM; GI50 (NCI-H460 lung): 15.6 µM; TGI (NCI-H460 lung): 48.4 µM; GI50 (RPMI-8226 leukemia): 10.9 µM; TGI (RPMI-8226 leukemia): 32.5 µM; GI50 (MCF7 breast): 17.4 µM; TGI (MCF7 breast): 41.2 µM; GI50 (HOP-62 NSCLC): 22.8 µM; TGI (HOP-62 NSCLC): 67.4 µM; GI50 (HS 578T breast): 17.5 µM; TGI (HS 578T breast): 56 µM; GI50 (NCI-H522 lung): 13.6 µM; TGI (NCI-H522 lung): 38.3 µM; GI50 (UACC-257 melanoma): 21.4 µM; TGI (UACC-257 melanoma): 62.2 µM; GI50 (HCT-15 colon): 19.6 µM; TGI (HCT-15 colon): > 100 µM; GI50 (A549 NSCLC): 20.6 µM; TGI (A549 NSCLC): 49.3 µM

**Q.** Which results are given for Cc1cccc(C(O)c2ccncc2)c1O (stereo not given)?
**A.** TGI (U251 CNS): > 100 µM; TGI (MOLT-4 leukemia): > 100 µM; TGI (K-562 leukemia): > 100 µM; TGI (PC-3 prostate): > 100 µM; TGI (UACC-62 melanoma): > 100 µM; TGI (HCC-2998 colon): > 100 µM; TGI (SNB-19 CNS): > 100 µM; TGI (KM12 colon): > 100 µM; TGI (SF-295 CNS): > 100 µM; TGI (SF-539 CNS): > 100 µM; TGI (NCI-H23 lung): > 100 µM; TGI (ACHN renal): > 100 µM; TGI (SK-MEL-5 melanoma): > 100 µM; TGI (OVCAR-3 ovarian): > 100 µM; TGI (SN12C renal): > 100 µM; TGI (HL-60(TB) leukemia): > 100 µM; TGI (HCT-116 colon): > 100 µM; TGI (M14 melanoma): > 100 µM; TGI (LOX IMVI melanoma): > 100 µM; TGI (NCI-H226 lung): > 100 µM; TGI (EKVX NSCLC): > 100 µM; TGI (UO-31 renal): > 100 µM; TGI (RXF 393 renal): > 100 µM; TGI (OVCAR-8 ovarian): > 100 µM; TGI (DU-145 prostate): > 100 µM; TGI (NCI/ADR-RES ovarian): > 100 µM; TGI (CCRF-CEM leukemia): > 100 µM; TGI (SF-268 CNS): > 100 µM; TGI (T-47D breast): > 100 µM; TGI (HOP-62 NSCLC): > 100 µM; TGI (HS 578T breast): > 100 µM; TGI (NCI-H522 lung): > 100 µM; TGI (UACC-257 melanoma): > 100 µM; TGI (HCT-15 colon): > 100 µM; TGI (A549 NSCLC): > 100 µM; TGI (SNB-75 CNS): > 100 µM
